Experimental data from PubChem BioAssay (NCI).
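Where inhibition never reached the appropriate level, the endpoint shown equals the highest concentration tested. Otherwise, values were interpolated linearly from a five-concentration, 48-hour dose response in 96-well plates. TGI denotes the concentration required for complete inhibition of growth.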

What was measured:
Test in all cases: inhibition of tumour cell growth, NCI panel, 48 h
DU-145 prostate = test system: DU-145 prostate
K-562 leukemia = test system: K-562 leukemia
OVCAR-5 ovarian = test system: OVCAR-5 ovarian
SR leukemia = test system: SR leukemia
NCI-H460 lung = test system: NCI-H460 lung
MCF7 breast = test system: MCF7 breast
OVCAR-8 ovarian = test system: OVCAR-8 ovarian
OVCAR-3 ovarian = test system: OVCAR-3 ovarian
NCI-H226 lung = test system: NCI-H226 lung
UACC-62 melanoma = test system: UACC-62 melanoma
NCI/ADR-RES ovarian = test system: NCI/ADR-RES ovarian
MDA-MB-435 = test system: MDA-MB-435
MDA-MB-231 breast = test system: MDA-MB-231 breast
CCRF-CEM leukemia = test system: CCRF-CEM leukemia
SN12C renal = test system: SN12C renal
HL-60(TB) leukemia = test system: HL-60(TB) leukemia
HCT-116 colon = test system: HCT-116 colon
MOLT-4 leukemia = test system: MOLT-4 leukemia
HOP-92 NSCLC = test system: HOP-92 NSCLC
UO-31 renal = test system: UO-31 renal
SK-MEL-28 melanoma = test system: SK-MEL-28 melanoma
PC-3 prostate = test system: PC-3 prostate
MDA-N = test system: MDA-N
SF-268 CNS = test system: SF-268 CNS
HT29 colon = test system: HT29 colon
NCI-H23 lung = test system: NCI-H23 lung
OVCAR-4 ovarian = test system: OVCAR-4 ovarian
A498 renal = test system: A498 renal
HOP-62 NSCLC = test system: HOP-62 NSCLC
TK-10 renal = test system: TK-10 renal
BT-549 breast = test system: BT-549 breast
A549 NSCLC = test system: A549 NSCLC
EKVX NSCLC = test system: EKVX NSCLC
SF-295 CNS = test system: SF-295 CNS
T-47D breast = test system: T-47D breast
SNB-75 CNS = test system: SNB-75 CNS
HCT-15 colon = test system: HCT-15 colon
RPMI-8226 leukemia = test system: RPMI-8226 leukemia
UACC-257 melanoma = test system: UACC-257 melanoma
HCC-2998 colon = test system: HCC-2998 colon
U251 CNS = test system: U251 CNS
COLO 205 colon = test system: COLO 205 colon
IGROV1 ovarian = test system: IGROV1 ovarian
SK-OV-3 ovarian = test system: SK-OV-3 ovarian
MALME-3M melanoma = test system: MALME-3M melanoma
SW-620 colon = test system: SW-620 colon
SK-MEL-5 melanoma = test system: SK-MEL-5 melanoma
M14 melanoma = test system: M14 melanoma
SNB-19 CNS = test system: SNB-19 CNS
ACHN renal = test system: ACHN renal
786-0 renal = test system: 786-0 renal
HS 578T breast = test system: HS 578T breast
SK-MEL-2 melanoma = test system: SK-MEL-2 melanoma
KM12 colon = test system: KM12 colon
SF-539 CNS = test system: SF-539 CNS
CAKI-1 renal = test system: CAKI-1 renal

Measured: TGI

COc1cc(CC(C)=O)cc(OC)c1
> 100 µM: DU-145 prostate | K-562 leukemia | OVCAR-5 ovarian | NCI-H460 lung | MCF7 breast | OVCAR-8 ovarian | OVCAR-3 ovarian | NCI-H226 lung | UACC-62 melanoma | NCI/ADR-RES ovarian | MDA-MB-435 | MDA-MB-231 breast | CCRF-CEM leukemia | SN12C renal | HCT-116 colon | HOP-92 NSCLC | UO-31 renal | SK-MEL-28 melanoma | PC-3 prostate | SF-268 CNS | HT29 colon | NCI-H23 lung | OVCAR-4 ovarian | A498 renal | HOP-62 NSCLC | TK-10 renal | BT-549 breast | A549 NSCLC | EKVX NSCLC | SF-295 CNS | T-47D breast | SNB-75 CNS | HCT-15 colon | RPMI-8226 leukemia | UACC-257 melanoma | HCC-2998 colon | U251 CNS | COLO 205 colon | IGROV1 ovarian | SK-OV-3 ovarian | MALME-3M melanoma | SW-620 colon | SK-MEL-5 melanoma | M14 melanoma | SNB-19 CNS | ACHN renal | 786-0 renal
73.2 µM: MOLT-4 leukemia
85.4 µM: SR leukemia
78.5 µM: HL-60(TB) leukemia
76.9 µM: MDA-N

CCOC(=O)c1c(NS(=O)(=O)c2ccc(C)cc2)sc2c1CCCC2
66.7 µM: SNB-75 CNS
72.7 µM: UO-31 renal
56.5 µM: UACC-62 melanoma
42.1 µM: HCT-15 colon
93.8 µM: KM12 colon
> 100 µM: DU-145 prostate | K-562 leukemia | OVCAR-5 ovarian | MCF7 breast | OVCAR-8 ovarian | HS 578T breast | NCI-H226 lung | NCI/ADR-RES ovarian | CCRF-CEM leukemia | SN12C renal | HL-60(TB) leukemia | MOLT-4 leukemia | PC-3 prostate | MDA-N | SF-268 CNS | A498 renal | TK-10 renal | BT-549 breast | A549 NSCLC | SF-295 CNS | T-47D breast | UACC-257 melanoma | IGROV1 ovarian | SK-MEL-5 melanoma | SF-539 CNS | M14 melanoma | SNB-19 CNS | ACHN renal | 786-0 renal | CAKI-1 renal
37.9 µM: COLO 205 colon
72.8 µM: MDA-MB-231 breast
47.5 µM: OVCAR-3 ovarian
54 µM: NCI-H23 lung
73 µM: HCT-116 colon
54.8 µM: SK-MEL-2 melanoma
45.9 µM: RPMI-8226 leukemia
98.7 µM: EKVX NSCLC
47.6 µM: HT29 colon
60.2 µM: HOP-62 NSCLC
78.8 µM: NCI-H460 lung
